From patent US7732398B2, “Medicinal uses of mu-opioid receptor agonists” (Cornell Research Foundation, Inc., priority 2000, dated 2010) come the findings set out here.

A short description of series [1]: In vivo pharmacokinetics in sheep. The note with it: preliminary data, compared with DALDA and [Dmt1]DALDA. The protocol: Five or more days were allowed for recovery from surgery prior to experimental studies.
In vivo pharmacokinetic studies In order to avoid the rapid distribution phase associated with intravenous bolus administration, all three peptides were administered as constant rate intravenous infusions to sheep. […] DALDA (0.6 mg/kg/hr) and [Dmt^1]DALDA (0.06 mg/kg/hr) were, therefore, infused via the venous catheter for a period of 4 hr. […] The current limit of sensitivity of the analytical method prevented the use of an even lower dose of [Dmt^1]DALDA. Blood samples (5 ml) were collected from the arterial catheter at 0, 1, 2, 3, 3.5, 4, 4.25, 4.5, 5, 6 and 7 hr.
Pharmacokinetic Analyses Plasma levels of DAMGO, DALDA and [Dmt^1]DALDA during and after the 4 h infusion were subjected to compartmental analysis using nonlinear regression (WINNONLIN). The derived pharmacokinetic constants were used to calculate the apparent volume of distribution at steady state (Vd), elimination half-life (t1/2) and clearance (CL).

Series [2] has as its system Male Sprague-Dawley rats. As to the kind of experiment: Rat tail-flick test, antinociceptive effects after intrathecal administration. The format is in vivo. The conditions noted are these: yohimbine 100 μg alone, intrathecal. The procedure: Male Sprague-Dawley rats (300-350 g) were used.
Under light halothane anesthesia a needle connected to a Hamilton syringe was inserted percutaneously between spinal processes of the third and fourth lumbar vertebrae into the intrathecal space. A quick flick of the tail was observed when the tip of the needle entered the intrathecal space and was used as an indicator of successful puncture (Mestre et al., 1994). Drugs were delivered in a volume of 5 μl.
Intrathecal catheterization was performed at least two days prior to the experiment as previously described (Shimoyama et al., 1996). Briefly, under halothane anesthesia, a PE-10 tube was inserted through a small hole made in the atlanto-occipital membrane and threaded 8.5 cm down the intrathecal space to the lumbosacral level of the spinal cord. Drugs were delivered via the catheter in a volume of 5 μl, followed by 10 μl saline to flush the catheter.
To assess the antinociceptive effects of the opioids, the tail-flick test was used. Radiant heat was applied to the tail at 5-8 cm from the tip using a tail-flick apparatus (IITC, Woodland Hills, Calif.). The time from the onset of the heat to the withdrawal of the tail (tail-flick latency) was measured. The intensity of the radiant heat was adjusted so that baseline latencies would fall between 2.5 and 3.5 seconds. To avoid tissue damage the heat stimulus was discontinued after seven seconds. A baseline latency was obtained for each animal prior to the administration of any drug. Subsequent response latencies were determined at designated time points. Analgesic testing was performed by a blinded investigator.
Cumulative dose-response studies were performed for each drug using the tail-flick test (Shimoyama et al., 1996), (Shimoyama et al., 1997). Each drug was tested in a group of ten rats. After measuring the baseline latencies, increasing doses of each drug were administered via an intrathecal catheter until each animal in the group became an analgesic responder. An analgesic responder was defined as one whose response tail-flick latency was two or more times the value of the baseline latency. The response latency after each dosing was determined at peak analgesia, which was 15, 30 and 45 min after the administration of the MOR, DALDA and [Dmt^1]DALDA, respectively (based on preliminary studies). Any subsequent dosing was performed immediately after the determination of response latency. The percentage of analgesic responders in the group of rats for each cumulative dose was calculated, and a cumulative dose-response curve was constructed. The dose-response data were analyzed by the BLISS-21 computer program. This program maximized the log-likelihood function to fit a parallel set of gaussian normal sigmoid curves to the dose-response data and provides ED50 values, 95% confidence interval (CI) and relative potency estimates (Umans and Inturrisi, 1981).
The effect of naloxone on the antinociceptive effects of intrathecal MOR, DALDA and [Dmt^1]DALDA was examined. An equipotent dose (3 times the ED50 value determined in Study 1) of MOR, DALDA or [Dmt^1]DALDA was given via an intrathecal catheter. Tail-flick latencies were measured prior to the administration of any drug and at the time of peak analgesia for each compound (at 15, 30 and 45 minutes after administration, for MOR, DALDA and [Dmt^1]DALDA, respectively). Naloxone hydrochloride at a dose of 82.5 nmol or saline was administered via the intrathecal catheter 10 minutes prior to the second tail-flick testing. Four rats were tested for each combination of drugs. Data were analyzed using the paired t-test.
A dose 3 times the ED50 value of MOR, DALDA, or [Dmt^1]DALDA was administered intrathecally. Tail-flick latencies were measured prior to the administration of any drug (=baseline latency) and at the time of peak analgesia (=response latency). […]
For orientation: Hot-plate and tail-flick tests time the reaction to a heat stimulus.

Entries after “also recorded” stand apart in the source; their conditions may differ.

With `C[C@@H](NC(=O)[C@@H](N)Cc1ccc(O)cc1)C(=O)NCC(=O)N(C)[C@@H](Cc1ccccc1)C(=O)NCCO` [DAMGO], the elimination in sheep entry in series [1] is recorded as “much more rapid elimination”.
In the case of `COC(=O)[C@@H]1[C@H]2C[C@H]3c4[nH]c5ccccc5c4CCN3C[C@@H]2CC[C@@H]1O` [Yohimbine, yohimbine, reference compound], the “effect on tail-flick latency” value in series [2] is recorded as “no effect; also recorded: not having any effect on tail-flick latency by itself”.
